# Data from patent EP0302626A2, “Insecticidal compounds” (IMPERIAL CHEMICAL INDUSTRIES PLC, priority 1987, dated 1989).
# Several values for one entry are separate records, joined by “and”; a condition that tells them apart may be missing. Equal entries are not always repeated. Where two headings read alike, the source gives them in different places.
# Key:
# Type in all cases: in vivo
# [1] = tested on: Tetranychus urticae (spider mites - adult); assay: insecticidal mortality test, contact, French bean leaf; settings: for mortality at 100 ppm: read-out: grading of mortality, Tua, 100 ppm, 3 days
# Protocol: (§1) The activity of the Product was determined using a variety of insect pests. The Product was used in the form of liquid preparations containing 500, 250 or 100 parts per million (ppm) by weight of the Product. The preparations were made by dissolving the Product in acetone and diluting the solutions with water containing 0.01% by weight of a wetting agent sold under the trade name "LlSSAPOL" NX until the liquid preparations contained the required concentration of the Product. "Lissapol" is a Registered Trade Mark.
# (§2) The test procedure adopted with regard to each pest was basically the same and comprised supporting a number of the pests on a medium which was usually a host plant or a foodstuff on which the pests feed, and treating either or both the pests and the medium with the preparations. The mortality of the pests was then assessed at periods usually varying from one to three days after the treatment.
# (§3) The results of the tests are given in Table III for each of the Products, at the rate in parts per million given in the second column as a grading of mortality designated as A, B or C wherein A indicates 80-100% mortality, B indicates 50-79% mortality and C indicates less than 50% mortality.
# (§4) In Table 111 the pest organism used is designated by a letter code and the pests species, the support medium or food, and the type and duration of test is given in Table II.
# Myzus persicae (aphids) = assay: insecticidal mortality test, contact, Chinese Cabbage leaf; settings: 72 h, read-out: grading of mortality, MP
# Protocol: as §1, §2, §3, §4
# Nilaparvata lugens = assay: insecticidal mortality test, Nephotettix cincticeps replaced by Nilaparvata lugens; settings: 72 h, read-out: grading of mortality, NC with Nilaparvata lugens
# Protocol: as §1, §2, §3, §4
# [2] = tested on: Heliothis virescens (tobacco budworm - larvae); assay: insecticidal mortality test, residual, cotton leaf; settings: read-out: grading of mortality, HV
# Protocol: as §1, §2, §3, §4
# [3] = tested on: Spodoptera exigua (lesser army worm - larvae); assay: insecticidal mortality test, residual, cotton leaf; settings: read-out: grading of mortality, SP
# Protocol: as §1, §2, §3, §4
# [4] = tested on: Diabrotica balteata (rootworm larvae); assay: insecticidal mortality test, residual, filter paper/maize seed; settings: read-out: grading of mortality, DB
# Protocol: as §1, §2, §3, §4
# [5] = tested on: Blattella germanica (cockroach nymphs); assay: insecticidal mortality test, residual, plastic pot; settings: 72 h, read-out: grading of mortality, BG
# Protocol: as §1, §2, §3, §4
# [6] = tested on: Musca domestica (houseflies - adults); assay: insecticidal mortality test, contact, cotton wool/sugar; settings: read-out: grading of mortality, MD
# Protocol: as §1, §2, §3, §4
# [7] = tested on: Blattella germanica (adult males); assay: Blattella germanica knockdown test; settings: tests 1 and 2 are repeats; for % KNOCKDOWN OBSERVED 15 min / % KNOCKDOWN OBSERVED 20 min / pest or weed control at 250 ppm: 250 ppm in kerosene, 1 cm3 sprayed onto 10 adult males; for pest or weed control at 250 ppm / mortality at 250 ppm: Blattella germanica; for pest or weed control at 250 ppm: topical, 10 min, Tetramethrin: mean of 27 observations, read-out: % KNOCKDOWN OBSERVED 10 min; for mortality at 250 ppm: 48 h, 250 ppm spray, insects held at 25°C and 65% relative humidity for 48 hours, read-out: % MORTALITY 48 hrs
# Protocol: The test compound was dissolved in acetone (2 cm³) and the solution diluted to a concentration of 250 ppm with kerosene. 1 cm³ Of this preparation was sprayed onto 10 Blattella germanica (adult males) held in a netted plastic pot in a Burkhard potter Tower. Assessment of knockdown was performed at intervals of 5 minutes up to a total of 20 minutes. On removal from the Burkhard Potter Tower, the insects were held at 25°C and 65% relative humidity for 48 hours, and an assessment of mortality performed. Each test was repeated.
# In some tests, additional knockdown assessment was performed at intervals of 1, 2, 3 and 4 minutes, and KT₅₀ and KT₉₀ values determined (the time taken, in minutes, to knockdown 50% and 90% respectively of test insects).
# [8] = tested on: Musca domestica (adult females); assay: Musca domestica knockdown test; settings: 1 cm3 of 30 ppm solution in acetone, Kearns and March chamber, 20 adult females, observed over 10 minutes; average of 2 replicates (* single replicate, ** average of 7 tests)
# Protocol: 1 cm³ Of a 30 ppm solution of the test chemical in acetone was sprayed into a Kearns and March chamber containing 20 Musca domestica (adult females). Knockdown was observed over a period of 10 minutes and KT₅₀ and KT₉₀ values (the time taken for 50% and 90% of the insects to be knocked down) were calculated from the observations. The results given in Table V represent average KT values of 2 replicates except where otherwise stated.
# [9] = tested on: Nephotettix cincticeps (green leaf hopper - nymphs); assay: insecticidal mortality test, contact, rice plant; settings: 100 ppm, contact, rice plant, read-out: grading of mortality, NC
# Protocol: as §1, §2, §3, §4
# [10] = Nilaparvata lugens, in Oryza sativa
# [11] = 72 h, 100 ppm, residual, cotton leaf, 3 days
Structure (SMILES),"mortality at 100 ppm ([1]; Tetranychus urticae, 72 h)",mortality at 100 ppm (Myzus persicae (aphids)),mortality at 100 ppm (Nilaparvata lugens; [10]),"mortality at 100 ppm [2, 11]",mortality at 100 ppm ([3]; 72 h),mortality at 100 ppm ([4]; 72 h),mortality at 100 ppm [5],mortality at 100 ppm ([6]; 24 h),% KNOCKDOWN OBSERVED 15 min [7],pest or weed control at 250 ppm [7],KT₅₀ [8],KT₉₀ [8],mortality at 250 ppm [7],"mortality at 100 ppm ([9]; 72 h, 3 days)",other results
"CC1(C)C(C=C(Cl)C(F)(F)F)C1C(=O)OCc1c(F)c(F)c(CF)c(F)c1F (racemic) [Product II, 4-(Fluoromethyl)-2,3,5,6-tetrafluorobenzyl (1RS,cis)-3-(Z-2-chloro-3,3,3-trifluoroprop-1-en-1-yl)-2,2-dimethyl-cyclopropanecarboxylate]",< 50%,80 to 100%,80 to 100%,80 to 100%,80 to 100%,80 to 100%,80 to 100%,80 to 100%,90% and 100%,60%,2.7 min,5.0 min,–,–,% KNOCKDOWN OBSERVED 20 min [7]: 90%
"CC1(C)C(C=C(Cl)C(F)(F)F)C1C(=O)OCc1c(F)c(F)c(COC=O)c(F)c1F (racemic) [Product IX, 4-(Formyloxymethyl)-2,3,5,6-tetrafluoromethyl (1RS, trans)-3-(Z-2-chloro-3,3,3-trifluoroprop-1-en-1-yl)-2,2-dimethylcyclopropanecarboxylate]",–,80 to 100%,–,–,–,–,80 to 100%,–,–,100%,10* mins,10* mins,100%,–,"grading of mortality, Tua ([1]; 100 ppm, 3 days, listed as IX, 4320 min): C (C indicates less than 50% mortality); mortality at 100 ppm ([9]; 48 h, test duration of 2 days (footnote +)): 80 to 100%; mortality at 100 ppm ([2]; 48 h, 100 ppm, residual, cotton leaf, test duration of 2 days (footnote +)): 80 to 100%; mortality at 100 ppm ([3]; 48 h): 80 to 100%; mortality at 100 ppm ([4]; 48 h): < 50%; mortality at 100 ppm ([6]; 72 h): < 50%"
"CC(=O)OCc1c(F)c(F)c(COC(=O)C2C(C=C(Cl)C(F)(F)F)C2(C)C)c(F)c1F (racemic) [Product VI, 4-(Acetoxymethyl)-2,3,5,6-tetrafluorobenzyl (1RS,cis)-3-(Z-2-chloro-3,3,3-trifluoroprop-1-en-1-yl)-2,2-dimethylcyclopropanecarboxylate]",50 to 79%,80 to 100%,–,80 to 100%,80 to 100%,80 to 100%,80 to 100%,80 to 100%,70%,30%,7.0 min,7.7* mins,100%,80 to 100%,% KNOCKDOWN OBSERVED 20 min [7]: 100%
"CC1(C)C(C=C(Cl)C(F)(F)F)C1C(=O)OCc1c(F)c(F)c(CN=[N+]=[N-])c(F)c1F (racemic) [Product X, 4-(Azidomethyl)-2,3,5,6-tetrafluorobenzyl (1RS, cis)-3-(Z-2-chloro-3,3,3-trifluoroprop-1-en-1-yl)-2,2-dimethylcyclopropanecarboxylate]",80 to 100%,80 to 100%,–,80 to 100%,80 to 100%,80 to 100%,80 to 100%,80 to 100%,100%,70%,5.0* mins,9.0* mins,100%,80 to 100%,–
"CC1(C)C(C=C(Cl)C(F)(F)F)C1C(=O)OCc1c(F)c(F)c(CC#N)c(F)c1F (racemic) [Product XII, 4-(Cyanomethyl)-2,3,5,6-tetrafluorobenzyl (1RS, cis)-3-(Z-2-chloro-3,3,3-trifluoroprop-1-en-1-yl)-2,2-dimethylcyclopropanecarboxylate]",80 to 100%,< 50%,–,80 to 100%,80 to 100%,80 to 100%,80 to 100%,80 to 100%,–,100%,6.8 min,9.8 min,100%,80 to 100%,–
"C#Cc1c(F)c(F)c(COC(=O)C2C(C=C(Cl)C(F)(F)F)C2(C)C)c(F)c1F (racemic) [Product XVI, 4-Ethynyl-2,3,5,6-tetrafluorobenzyl (1RS, cis)-3-(Z-2-chloro-3,3,3-trifluoroprop-1-en-1-yl)-2,2-dimethylcyclopropanecarboxylate]",50 to 79%,80 to 100%,80 to 100%,80 to 100%,80 to 100%,80 to 100%,80 to 100%,80 to 100%,–,100%,4.6* mins,7.0* mins,100%,–,–
"CC(C)=NNc1c(F)c(F)c(COC(=O)[C@@H]2[C@H](/C=C(\Cl)C(F)(F)F)C2(C)C)c(F)c1F (relative stereo) [Product XIII, 4-(prop-2-ylidenehydrazino)-2,3,5,6-tetrafluorobenzyl (1RS, cis)-3-(Z-2-chloro-3,3,3-trifluoroprop-1-en-1-yl)-2,2-dimethylcyclopropanecarboxylate]",< 50%,50 to 79%,80 to 100%,–,–,80 to 100%,80 to 100%,80 to 100%,–,–,–,–,–,–,mortality at 100 ppm ([2]; 72 h): 80 to 100%
"CC(C)=NNc1c(F)c(F)c(COC(=O)[C@@H]2[C@H](C=C(Cl)Cl)C2(C)C)c(F)c1F (relative stereo) [Product XV, 4-(prop-2-ylidenehydrazino)-2,3,5,6-tetrafluorobenzyl (1RS, cis)-3-(2,2-dichloroethenyl)-2,2-dimethyl-cyclopropanecarboxylate]",–,–,–,–,–,–,–,–,–,–,–,–,–,–,mortality at 500 ppm (Myzus persicae (aphids)): 80 to 100%; mortality at 500 ppm (Nilaparvata lugens; [10]): 80 to 100%; mortality at 500 ppm ([2]; 72 h): 80 to 100%; mortality at 500 ppm ([4]; 72 h): 80 to 100%; mortality at 500 ppm [5]: 80 to 100%; mortality at 500 ppm ([6]; 24 h): 80 to 100%
"C#Cc1c(F)c(F)c(COC(=O)C2C(C)(C)C2(C)C)c(F)c1F [Product XVII, 4-Ethynyl-2,3,5,6-tetrafluorobenzyl-2,2,3,3-tetramethylcyclopropanecarboxylate]",–,–,–,–,–,–,–,–,–,–,4.1 min,7.5 min,–,–,"mortality at 500 ppm ([1]; Tetranychus urticae, 72 h, 500 ppm, 3 days, read-out: grading of mortality, Tua): 80 to 100%; mortality at 500 ppm (Myzus persicae (aphids); 500 ppm, contact, Chinese Cabbage leaf, 3 days): < 50%; mortality at 500 ppm (Nilaparvata lugens; 500 ppm, footnote *: Nephotettix cincticeps replaced by Nilaparvata lugens, otherwise as NC test (contact, rice plant, 3 days)): 80 to 100%; mortality at 500 ppm ([2]; 72 h): 80 to 100%; mortality at 500 ppm ([3]; 72 h, 500 ppm, residual, cotton leaf, 3 days): 80 to 100%; mortality at 500 ppm ([4]; 72 h, 500 ppm, residual, filter paper/maize seed, 3 days): < 50%; mortality at 500 ppm ([5]; 500 ppm, residual, plastic pot, 3 days): 80 to 100%; mortality at 500 ppm ([6]; 24 h, 500 ppm, contact, cotton wool/sugar, 1 day): 80 to 100%"
